Values joined by “and” are separate entries in the source; they are usually repeats but may differ in a detail not shown here. Equal entries are not always repeated. Inconclusive results and toxic doses are left out.
Test system: BDF1 mice, B16 melanoma ip, median survival T/C
Test: NCI In Vivo Anticancer Drug Screen. Data for tumor model B16 Melanoma (intraperitoneal) in B6D2F1 (BDF1) mice
Details: endpoint: median survival time, higher = longer survival
Outline: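 The ratio T/C compares compound-treated mice with vehicle-treated controls, using survival or tumor size as the endpoint in a transplantable tumor model.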

[1] = dose: 6.25 mg/kg/injection, schedule: Q01DX009 (ip), vehicle: saline with Tween-80
[2] = dose: 25.0 mg/kg/injection, schedule: Q01DX009 (ip), vehicle: saline with Tween-80
[3] = dose: 50.0 mg/kg/injection, schedule: Q01DX009 (ip), vehicle: saline with Tween-80
[4] = dose: 100.0 mg/kg/injection, schedule: Q01DX009 (ip), vehicle: saline with Tween-80
[5] = dose: 200.0 mg/kg/injection, schedule: Q01DX009 (ip), vehicle: saline with Tween-80
[6] = dose: 6.25 mg/kg/injection, schedule: Q01DX009 (ip), vehicle: saline
[7] = dose: 25.0 mg/kg/injection, schedule: Q01DX009 (ip), vehicle: Klucel (hydroxypropylcellulose) (HPC)
[8] = dose: 100.0 mg/kg/injection, schedule: Q01DX009 (ip), vehicle: Klucel (hydroxypropylcellulose) (HPC)
[9] = dose: 200.0 mg/kg/injection, schedule: Q01DX009 (ip), vehicle: Klucel (hydroxypropylcellulose) (HPC)
[10] = dose: 400.0 mg/kg/injection, schedule: Q01DX009 (ip), vehicle: Klucel (hydroxypropylcellulose) (HPC)
[11] = dose: 50.0 mg/kg/injection, schedule: Q01DX009 (ip), vehicle: Klucel (hydroxypropylcellulose) (HPC)

Compound: NC(=NCc1ccccc1)c1ccc(N=C(N)c2ccc(C(N)=Nc3ccc(C(N)=NCc4ccccc4)cc3)cc2)cc1
- T/C (dose: 2.5 mg/kg/injection, schedule: Q01DX009 (ip), vehicle: saline): 97 % of control
- T/C (dose: 5.0 mg/kg/injection, schedule: Q01DX009 (ip), vehicle: saline): 96 % of control
- T/C (dose: 10.0 mg/kg/injection, schedule: Q01DX009 (ip), vehicle: saline): 92 % of control
- T/C (dose: 20.0 mg/kg/injection, schedule: Q01DX009 (ip), vehicle: saline): 96 % of control

Compound: CCCCn1cnc2c(=S)nc[nH]c21
- T/C [1]: 93 % of control
- T/C (dose: 12.5 mg/kg/injection, schedule: Q01DX009 (ip), vehicle: saline with Tween-80): 89 % of control
- T/C [2]: 95 % of control
- T/C [3]: 97 % of control

Compound: NC(=O)NC(=O)c1cccc([N+](=O)[O-])c1
- T/C [3]: 104 % of control
- T/C [4]: 102 % of control
- T/C [5]: 102 % of control

Compound: CCC[CH2][Hg][O]C(C)=O
- T/C (dose: 0.63 mg/kg/injection, schedule: Q01DX009 (ip), vehicle: other): 99 % of control
- T/C (dose: 1.25 mg/kg/injection, schedule: Q01DX009 (ip), vehicle: other): 89 % of control
- T/C (dose: 2.5 mg/kg/injection, schedule: Q01DX009 (ip), vehicle: other): 86 % of control

Compound: CC(C(=O)O)C(=O)O.[NH2-].[NH2-].[Pt+2]
- T/C (dose: 0.78 mg/kg/injection, schedule: Q01DX009 (ip), vehicle: Klucel (hydroxypropylcellulose) (HPC)): 102 % of control
- T/C (dose: 1.56 mg/kg/injection, schedule: Q01DX009 (ip), vehicle: Klucel (hydroxypropylcellulose) (HPC)): 109 % of control
- T/C (dose: 3.12 mg/kg/injection, schedule: Q01DX009 (ip), vehicle: Klucel (hydroxypropylcellulose) (HPC)): 120 % of control
- T/C (dose: 6.25 mg/kg/injection, schedule: Q01DX009 (ip), vehicle: Klucel (hydroxypropylcellulose) (HPC)): 156 % of control
- T/C [6]: 124 % of control
- T/C (dose: 12.5 mg/kg/injection, schedule: Q01DX009 (ip), vehicle: Klucel (hydroxypropylcellulose) (HPC)): 175 % of control
- T/C (dose: 12.5 mg/kg/injection, schedule: Q01DX009 (ip), vehicle: saline): 160 % of control
- T/C [7]: 216 % of control
- T/C (dose: 25.0 mg/kg/injection, schedule: Q01DX009 (ip), vehicle: saline): 175 % of control
- T/C (dose: 50.0 mg/kg/injection, schedule: Q01DX009 (ip), vehicle: saline): 209 % of control
- T/C (dose: 100.0 mg/kg/injection, schedule: Q01DX009 (ip), vehicle: saline): 202 % of control

Compound: COc1ccc(C(OC2OC(n3cnc4c(=S)nc(N)[nH]c43)CC2OC(C)=O)(c2ccccc2)c2ccc(OC)cc2)cc1 (centres undefined)
- T/C [8]: 90 % of control
- T/C [9]: 96 % of control
- T/C [10]: 93 % of control

Compound: CCN1C=C/C(=C/c2cc3scc(-c4ccccc4)[n+]3c3ccccc23)c2ccccc21
- T/C (dose: 0.08 mg/kg/injection, schedule: Q01DX009 (ip), vehicle: saline): 94 % of control
- T/C (dose: 0.15 mg/kg/injection, schedule: Q01DX009 (ip), vehicle: saline): 94 % of control
- T/C (dose: 0.3 mg/kg/injection, schedule: Q01DX009 (ip), vehicle: saline): 90 % of control
- T/C (dose: 75.0 micrograms/kg/injection, schedule: Q01DX009 (ip), vehicle: Klucel (hydroxypropylcellulose) (HPC)): 103 % of control
- T/C (dose: 150.0 micrograms/kg/injection, schedule: Q01DX009 (ip), vehicle: Klucel (hydroxypropylcellulose) (HPC)): 107 % of control
- T/C (dose: 300.0 micrograms/kg/injection, schedule: Q01DX009 (ip), vehicle: Klucel (hydroxypropylcellulose) (HPC)): 98 % of control
- T/C (dose: 600.0 micrograms/kg/injection, schedule: Q01DX009 (ip), vehicle: Klucel (hydroxypropylcellulose) (HPC)): 95 % of control

Compound: Cc1c([C@H](C)[C@@H]2NC[C@@H](C)C[C@H]2O)ccc2c1C[C@H]1[C@H]2CC=C2C[C@@H](O)CC[C@@]21C
- T/C (dose: 1.5 mg/kg/injection, schedule: Q01DX009 (ip), vehicle: saline): 97 % of control
- T/C (dose: 3.0 mg/kg/injection, schedule: Q01DX009 (ip), vehicle: saline): 104 % of control

Compound: CCC(=O)Oc1[nH]c(C)c(C(C)=O)c1C
- T/C [4]: 102 % of control
- T/C [5]: 100 % of control
- T/C (dose: 400.0 mg/kg/injection, schedule: Q01DX009 (ip), vehicle: saline with Tween-80): 95 % of control

Compound: CCC(C)C(CO)c1ccccc1 (centres undefined)
- T/C [2]: 102 % of control
- T/C [3]: 99 % of control

Compound: CC(NC(=O)C1CCCN1C(=O)OCc1ccccc1)C(=O)O (centres undefined)
- T/C [3]: 91 % of control
- T/C [4]: 90 % of control

Compound: COc1cc2cccc(OC)c(=O)c2c(O)c1OC
- T/C [7]: 97 % of control
- T/C [11]: 105 % of control
- T/C [8]: 97 % of control

Compound: C=CCNC(=O)c1ccccc1SC(C)=O
- T/C (dose: 100.0 mg/kg/injection, schedule: Q01DX009 (ip), vehicle: saline + Tween-80 + alcohol): 101 % of control
- T/C (dose: 200.0 mg/kg/injection, schedule: Q01DX009 (ip), vehicle: saline + Tween-80 + alcohol): 116 % of control
- T/C (dose: 400.0 mg/kg/injection, schedule: Q01DX009 (ip), vehicle: saline + Tween-80 + alcohol): 124 % of control

Compound: O=C(O)CCCc1ccc(N(CCCl)CCCl)cc1
- T/C (dose: 0.37 mg/kg/injection, schedule: Q01DX009 (ip), vehicle: Klucel (hydroxypropylcellulose) (HPC)): 100 % of control
- T/C (dose: 0.5 mg/kg/injection, schedule: Q01DX009 (ip), vehicle: Klucel (hydroxypropylcellulose) (HPC)): 93 % of control and 104 % of control
- T/C (dose: 1.0 mg/kg/injection, schedule: Q01DX009 (ip), vehicle: Klucel (hydroxypropylcellulose) (HPC)): 101 % of control and 104 % of control and 117 % of control
- T/C (dose: 1.5 mg/kg/injection, schedule: Q01DX009 (ip), vehicle: Klucel (hydroxypropylcellulose) (HPC)): 88 % of control and 89 % of control
- T/C (dose: 1.88 mg/kg/injection, schedule: Q01DX009 (ip), vehicle: Klucel (hydroxypropylcellulose) (HPC)): 112 % of control
- T/C (dose: 2.0 mg/kg/injection, schedule: Q01DX009 (ip), vehicle: Klucel (hydroxypropylcellulose) (HPC)): 100 % of control and 107 % of control and 109 % of control
- T/C (dose: 2.0 mg/kg/injection, schedule: Q01DX017 (ip), vehicle: saline): 109 % of control
- T/C (dose: 3.0 mg/kg/injection, schedule: Q01DX009 (ip), vehicle: Klucel (hydroxypropylcellulose) (HPC)): 86 % of control and 87 % of control
- T/C (dose: 3.13 mg/kg/injection, schedule: Q01DX009 (ip), vehicle: saline): 100 % of control
- T/C (dose: 3.75 mg/kg/injection, schedule: Q01DX009 (ip), vehicle: Klucel (hydroxypropylcellulose) (HPC)): 110 % of control
- T/C (dose: 4.0 mg/kg/injection, schedule: Q01DX009 (ip), vehicle: Klucel (hydroxypropylcellulose) (HPC)): 108 % of control and 109 % of control and 118 % of control
- T/C (dose: 4.0 mg/kg/injection, schedule: Q01DX009 (ip), vehicle: saline): 104 % of control
- T/C (dose: 4.0 mg/kg/injection, schedule: Q01DX017 (ip), vehicle: saline): 121 % of control
- T/C (dose: 6.0 mg/kg/injection, schedule: Q01DX009 (ip), vehicle: Klucel (hydroxypropylcellulose) (HPC)): 89 % of control and 118 % of control
- T/C [6]: 104 % of control
- T/C (dose: 7.5 mg/kg/injection, schedule: Q01DX009 (ip), vehicle: Klucel (hydroxypropylcellulose) (HPC)): 116 % of control
- T/C (dose: 8.0 mg/kg/injection, schedule: Q01DX001 (ip), vehicle: saline): 95 % of control
- T/C (dose: 8.0 mg/kg/injection, schedule: Q01DX009 (ip), vehicle: Klucel (hydroxypropylcellulose) (HPC)): 111 % of control and 120 % of control
- T/C (dose: 8.0 mg/kg/injection, schedule: Q01DX009 (ip), vehicle: saline): 119 % of control
- T/C (dose: 8.0 mg/kg/injection, schedule: Q04DX003 (ip), vehicle: saline): 122 % of control
- T/C (dose: 12.0 mg/kg/injection, schedule: Q01DX009 (ip), vehicle: Klucel (hydroxypropylcellulose) (HPC)): 100 % of control
- T/C (dose: 16.0 mg/kg/injection, schedule: Q01DX001 (ip), vehicle: saline): 118 % of control
- T/C (dose: 16.0 mg/kg/injection, schedule: Q01DX009 (ip), vehicle: saline): 121 % of control
- T/C (dose: 16.0 mg/kg/injection, schedule: Q04DX003 (ip), vehicle: saline): 122 % of control

Compound: CC(=O)C1=C(O)C2(O)C(=O)c3c(c(C)c4ccc(C)c(O)c4c3O)CC2C(N)C1=O (centres undefined)
- T/C (dose: 1.56 mg/kg/injection, schedule: Q01DX009 (ip), vehicle: saline with Tween-80): 100 % of control
- T/C (dose: 3.13 mg/kg/injection, schedule: Q01DX009 (ip), vehicle: saline with Tween-80): 95 % of control
- T/C (dose: 3.75 mg/kg/injection, schedule: Q01DX009 (ip), vehicle: saline + alcohol): 103 % of control
- T/C [1]: 100 % of control
- T/C (dose: 7.5 mg/kg/injection, schedule: Q01DX009 (ip), vehicle: saline + alcohol): 105 % of control
- T/C (dose: 15.0 mg/kg/injection, schedule: Q01DX009 (ip), vehicle: saline + alcohol): 114 % of control

Compound: Cc1ccc(C2NC(=O)c3ccccc3N2)s1 (centres undefined)
- T/C [11]: 99 % of control
- T/C [8]: 102 % of control
- T/C [9]: 105 % of control
- T/C [10]: 96 % of control

From PubChem BioAssay AID192 (DTP/NCI, 2004)
